Results on 4 compounds are retold here after patent US6037361A, “Fluorinated butyric acids and their derivatives as inhibitors of matrix metalloproteinases” (Warner-Lambert Company, priority 1998, dated 2000).

Experiment [1] has as its system bovine nasal and pig articular cartilage. To be noted: bovine nasal and pig articular cartilage models for arthritis; cited from earlier work.
The target of experiment [2] is GCD (recombinant gelatinase A catalytic domain). Nature of the experiment: IC50 versus GCD with thiopeptolide substrate Ac-Pro-Leu-Gly-thioester-Leu-Leu-Gly-OEt. It is filed as biochemical. How it is done: (§1) Experiments were carried out with the catalytic domains of the proteinases. […] IC50 values were determined using a thiopeptolide substrate, Ac-Pro-Leu-Gly-thioester-Leu-Leu-Gly-OEt (Ye Q. -Z., Johnson L. L., Hupe D. J., and Baragi V., "Purification and Characterization of the Human Stromelysin Catalytic Domain Expressed in Escherichia coli", Biochemistry, 1992;31:11231-11235).

The target in experiment [3] is T1, SCD (stromelysin-1 catalytic domain) (Homo sapiens, UniProt P08254).
T1 construct: SCD (stromelysin-1 catalytic domain); made in house; host or cells: Escherichia coli
Nature of the experiment: IC50 versus SCD with thiopeptolide substrate Ac-Pro-Leu-Gly-thioester-Leu-Leu-Gly-OEt. In kind it is biochemical. Here is the method:
as §1

For experiment [4], the system named is human ovarian carcinoma xenografts. To be noted: mice bearing human ovarian carcinoma xenografts; cited from earlier work. For orientation: In xenograft studies the graft and the host belong to different species.

As usually defined, the IC50 is the point on the concentration scale where inhibition reaches its midpoint.

T1 sequence (P08254 100-272 limits assumed): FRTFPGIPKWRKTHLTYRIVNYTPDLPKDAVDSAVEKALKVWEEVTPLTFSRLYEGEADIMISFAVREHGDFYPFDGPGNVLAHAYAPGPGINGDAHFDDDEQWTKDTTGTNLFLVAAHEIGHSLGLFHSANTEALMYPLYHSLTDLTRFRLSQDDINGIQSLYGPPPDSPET

With “TIMP-1: natural endogenous inhibitors of MMPs (TIMPs)”, the “formation of collagen fragments and proteoglycan fragments” value in experiment [1] was “prevented the formation of collagen fragments, but not proteoglycan fragments”.

Regarding `O=C(CC(F)(F)C(=O)O)c1ccc2oc3ccccc3c2c1` [Example 2, 4-Dibenzofuran-2-yl-2,2-difluoro-4-oxo-butric acid], the IC50 is 93.6 µM in experiment [2] and > 100 µM in experiment [3].

For the compound `O=C(O)CC(F)(F)C(=O)c1ccc2oc3ccccc3c2c1` [Example 1, 4-Dibenzofuran-2-yl-3,3-difluoro-4-oxo-butyric acid], the IC50 in experiment [2] stood at 1.95 µM; in experiment [3], 24 µM.

In the case of `CNC(=O)[C@H](Cc1ccccc1)NC(=O)[C@H](CC(C)C)[C@H](CSc1cccs1)C(=O)NO` [BB-94], the “tumor burden and survival” value in experiment [4] was “decreased the tumor burden and prolonged the survival”.
